In patent US7538092B2, “Pharmaceutically active oligosaccharide conjugates” (Fresenius Kabi Deutschland GmbH, priority 2002, dated 2009):

Test: Determination of solubility in water / PBS
Assay type: physicochemical
Conditions: only using solution with extreme pH values

C[C@@H]1[C@H](O)[C@@H](C)/C=C/C=C/C=C/C=C/C=C/C=C/C=C/[C@H](O[C@@H]2O[C@H](C)[C@@H](O)[C@H](N)[C@@H]2O)C[C@@H]2O[C@](O)(C[C@@H](O)C[C@@H](O)[C@H](O)CC[C@@H](O)C[C@@H](O)CC(=O)O[C@H]1C)C[C@H](O)[C@H]2C(=O)O [Amphotericin B]
water solubility: around 0.1 mg per ml
